Calls of active or inactive are those of the source. The rule behind the calls is not given here.
Experiments:
[1] = target: T1, Bile acid receptor (Mus musculus) (UniProt Q60641); assay: In vivo activation of FXR in CDAHFD-induced nonalcoholic steatohepatitis C57BL/6J mouse model assessed as induction of FGF15 gene expression at 80 mg/kg, po administered daily for 4 weeks; assay type: functional, organism-based
T1 sequence (whole entry): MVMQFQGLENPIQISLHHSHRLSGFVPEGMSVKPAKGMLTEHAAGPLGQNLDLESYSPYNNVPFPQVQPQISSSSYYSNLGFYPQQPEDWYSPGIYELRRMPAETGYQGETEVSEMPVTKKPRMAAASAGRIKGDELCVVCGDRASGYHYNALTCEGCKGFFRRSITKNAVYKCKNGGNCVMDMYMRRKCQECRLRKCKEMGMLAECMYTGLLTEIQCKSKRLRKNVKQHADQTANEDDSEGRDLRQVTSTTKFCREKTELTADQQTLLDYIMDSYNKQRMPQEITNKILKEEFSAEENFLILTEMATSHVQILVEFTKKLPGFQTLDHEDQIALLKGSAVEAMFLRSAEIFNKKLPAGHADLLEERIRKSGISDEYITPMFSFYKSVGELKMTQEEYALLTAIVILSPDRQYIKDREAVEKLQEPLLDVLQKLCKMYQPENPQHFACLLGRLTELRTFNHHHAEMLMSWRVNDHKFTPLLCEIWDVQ

[2] = target: T1, Bile acid receptor (Mus musculus); assay: In vivo activation of FXR in CDAHFD-induced nonalcoholic steatohepatitis C57BL/6J mouse model assessed as reduction in liver fibrosis at 80 mg/kg, po administered daily for 4 weeks by picrosirius red staining method; assay type: functional, organism-based
[3] = Toxicity in CDAHFD-induced nonalcoholic steatohepatitis C57BL/6J mouse model assessed as change in amount of food intake at 80 mg/kg, po administered daily for 4 weeks; assay type: organism-based; conditions: in vivo, 672 h
[4] = target: T1, Bile acid receptor (Mus musculus); assay: In vivo activation of FXR in CDAHFD-induced nonalcoholic steatohepatitis C57BL/6J mouse model assessed as induction of OST-alpha gene expression at 80 mg/kg, po administered daily for 4 weeks; assay type: functional, organism-based
[5] = target: T1, Bile acid receptor (Mus musculus); assay: In vivo activation of FXR in CDAHFD-induced nonalcoholic steatohepatitis C57BL/6J mouse model assessed as induction of IBABP gene expression at 80 mg/kg, po administered daily for 4 weeks; assay type: functional, organism-based
[6] = Toxicity in CDAHFD-induced nonalcoholic steatohepatitis C57BL/6J mouse model assessed as change in body weight at 80 mg/kg, po administered daily for 4 weeks; assay type: organism-based; conditions: in vivo, 672 h
[7] = target: T1, Bile acid receptor (Mus musculus); assay: In vivo activation of FXR in CDAHFD-induced nonalcoholic steatohepatitis C57BL/6J mouse model assessed as induction of SHP gene expression in liver at 80 mg/kg, po administered daily for 4 weeks; assay type: functional, organism-based
[8] = target: T1, Bile acid receptor (Mus musculus); assay: In vivo activation of FXR in CDAHFD-induced nonalcoholic steatohepatitis C57BL/6J mouse model assessed as induction of SHP gene expression at 80 mg/kg, po administered daily for 4 weeks; assay type: functional, organism-based
[9] = Toxicity in CDAHFD-induced nonalcoholic steatohepatitis C57BL/6J mouse model assessed as increase in liver wet weight at 80 mg/kg, po administered daily for 4 weeks […]; assay type: organism-based; conditions: in vivo, 672 h
[10] = target: T1, Bile acid receptor (Mus musculus); assay: In vivo activation of FXR in […]-induced nonalcoholic steatohepatitis C57BL/6J mouse model assessed as improved glucose tolerance measured up to 120 mins by glucose tolerance test; assay type: functional
Bile acid receptor = target: T2, Bile acid receptor (Homo sapiens, UniProt Q96RI1)
T2 sequence (Q96RI1 whole entry): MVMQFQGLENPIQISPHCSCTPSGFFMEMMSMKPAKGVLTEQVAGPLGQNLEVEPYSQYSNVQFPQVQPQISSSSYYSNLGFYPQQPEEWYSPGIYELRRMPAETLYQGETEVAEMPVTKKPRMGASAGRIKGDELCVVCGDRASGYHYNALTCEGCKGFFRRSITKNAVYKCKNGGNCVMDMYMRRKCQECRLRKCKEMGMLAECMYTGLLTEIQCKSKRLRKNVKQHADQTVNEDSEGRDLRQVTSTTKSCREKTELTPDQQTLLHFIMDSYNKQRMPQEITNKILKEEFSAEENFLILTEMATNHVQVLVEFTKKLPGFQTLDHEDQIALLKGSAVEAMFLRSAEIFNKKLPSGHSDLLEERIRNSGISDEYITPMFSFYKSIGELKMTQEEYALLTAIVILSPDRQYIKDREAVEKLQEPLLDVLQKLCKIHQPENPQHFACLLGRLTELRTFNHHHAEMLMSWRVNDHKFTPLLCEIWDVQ
Description: Agonist activity at human FXR transfected in CHO-K1 cells coexpressed with beta-galactosidase incubated for 3 to 16 hrs by PathHunter chemiluminescence based assay

[11] = target: Progesterone receptor (Homo sapiens) (UniProt P06401); assay: Agonist activity at human PR-beta expressed in U2OS cells assessed as maximum relative efficacy at 100 uM by PathHunter assay relative to norgestrel; assay type: cell-based
[12] = target: Peroxisome proliferator-activated receptor alpha (Homo sapiens) (UniProt Q07869); assay: Agonist activity at human PPAR-alpha expressed in CHO-K1 cells assessed as maximum relative efficacy at 100 uM by PathHunter assay relative to GW7647; assay type: cell-based
[13] = target: Retinoic acid receptor RXR-beta (Homo sapiens) (UniProt P28702); assay: Agonist activity at human RXR-beta expressed in U2OS cells assessed as maximum relative efficacy at 100 uM by PathHunter assay relative to 9-cis-retinoic acid; assay type: cell-based
[14] = target: Androgen receptor (Homo sapiens) (UniProt P10275); assay: Agonist activity at human AR expressed in CHO-K1 cells assessed as maximum relative efficacy at 100 uM by PathHunter assay relative to 6alpha-fluorotestosterone; assay type: cell-based
[15] = target: Mineralocorticoid receptor (Homo sapiens) (UniProt P08235); assay: Agonist activity at human MR expressed in CHO-K1 cells assessed as maximum relative efficacy at 100 uM by PathHunter assay relative to aldosterone; assay type: cell-based
[16] = target: Oxysterols receptor LXR-alpha (Homo sapiens) (UniProt Q13133); assay: Agonist activity at human LXR-alpha expressed in CHO-K1 cells assessed as maximum relative efficacy at 100 uM by PathHunter assay relative to TO901317; assay type: cell-based
[17] = target: Estrogen receptor (Homo sapiens) (UniProt P03372); assay: Agonist activity at human ERalpha expressed in CHO-K1 cells assessed as maximum relative efficacy at 100 uM by PathHunter assay relative to 17-beta-estradiol; assay type: cell-based
[18] = target: Oxysterols receptor LXR-beta (Homo sapiens) (UniProt P55055); assay: Agonist activity at human LXR-beta expressed in CHO-K1 cells assessed as maximum relative efficacy at 100 uM by PathHunter assay relative to TO901317; assay type: cell-based
[19] = target: Retinoic acid receptor alpha (Homo sapiens) (UniProt P10276); assay: Agonist activity at human RAR-alpha expressed in CHO-K1 cells assessed as maximum relative efficacy at 100 uM by PathHunter assay relative to 9-cis-retinoic acid; assay type: cell-based
[20] = target: Thyroid hormone receptor alpha (Homo sapiens) (UniProt P10827); assay: Agonist activity at human THR-alpha expressed in CHO-K1 cells assessed as maximum relative efficacy at 100 uM by PathHunter assay relative to control; assay type: cell-based
[21] = target: Peroxisome proliferator-activated receptor gamma (Homo sapiens) (UniProt P37231); assay: Agonist activity at human PPAR-gamma expressed in CHO-K1 cells assessed as maximum relative efficacy at 100 uM by PathHunter assay relative to troglitazone; assay type: cell-based
[22] = target: Progesterone receptor (Homo sapiens) (UniProt P06401); assay: Agonist activity at human PR-alpha expressed in U2OS cells assessed as maximum relative efficacy at 100 uM by PathHunter assay relative to norgestrel; assay type: cell-based
[23] = target: Retinoic acid receptor RXR-alpha (Homo sapiens) (UniProt P19793); assay: Agonist activity at human RXR-alpha expressed in U2OS cells assessed as maximum relative efficacy at 100 uM by PathHunter assay relative to 9-cis-retinoic acid; assay type: cell-based
[24] = target: Retinoic acid receptor beta (Homo sapiens) (UniProt P10826); assay: Agonist activity at human RAR-beta expressed in CHO-K1 cells assessed as maximum relative efficacy at 100 uM by PathHunter assay relative to 9-cis-retinoic acid; assay type: cell-based
[25] = target: Thyroid hormone receptor beta (Homo sapiens) (UniProt P10828); assay: Agonist activity at human THR-beta expressed in CHO-K1 cells assessed as maximum relative efficacy at 100 uM by PathHunter assay relative to triiodothyronine ine; assay type: cell-based
[26] = target: Glucocorticoid receptor (Homo sapiens) (UniProt P04150); assay: Agonist activity at human GR expressed in CHO-K1 cells assessed as maximum relative efficacy at 100 uM by PathHunter assay relative to dexamethasone; assay type: cell-based
[27] = target: Peroxisome proliferator-activated receptor delta (Homo sapiens) (UniProt Q03181); assay: Agonist activity at human PPAR-delta expressed in CHO-K1 cells assessed as maximum relative efficacy at 100 uM by PathHunter assay relative to L-165,041; assay type: cell-based
[28] = Volume of distribution at steady state in Sprague-Dawley rat at 5 mg/kg, iv measured up to 24 hrs by HPLC analysis; assay type: ADME, organism-based; conditions: in vivo, read-out: Vdss
[29] = Stability in Sprague-Dawley rat plasma at 80 mg/kg, po measured after 3 hrs by RP-HPLC analysis; assay type: ADME, organism-based; conditions: in vivo
[30] = Clearance in Sprague-Dawley rat at 5 mg/kg, iv measured up to 24 hrs by HPLC analysis; assay type: ADME, organism-based; conditions: in vivo
[31] = target: T3, Bile acid receptor (Homo sapiens) (UniProt Q96RI1); assay: Antagonist activity at human FXR expressed in CHO-K1 FXR cells coexpressed with beta-galactosidase at 1.1 uM preincubated for 60 mins followed by GW4064 addition and measured after 3 to 16 hrs by PathHunter chemiluminescence based assay relative to control; assay type: cell-based; design: scale not given: the % may be the effect or the level left; conditions: time 4-17 hrs
T3 sequence (whole entry): T2 sequence (Q96RI1 whole entry)

[32] = target: T3, Bile acid receptor (Homo sapiens); assay: Agonist activity at human FXR transfected in CHO-K1 cells coexpressed with beta-galactosidase at 10 uM incubated for 3 to 16 hrs by PathHunter chemiluminescence based assay relative to control; assay type: cell-based; conditions: time 3-16 hrs
[33] = target: T3, Bile acid receptor (Homo sapiens); assay: Antagonist activity at human FXR expressed in CHO-K1 FXR cells coexpressed with beta-galactosidase at 3.3 uM preincubated for 60 mins followed by GW4064 addition and measured after 3 to 16 hrs by PathHunter chemiluminescence based assay relative to control; assay type: cell-based; design: scale not given: the % may be the effect or the level left; conditions: time 4-17 hrs
[34] = Half life in Sprague-Dawley rat at 5 mg/kg, iv measured up to 24 hrs by HPLC analysis; assay type: ADME, organism-based; conditions: in vivo
[35] = AUClast in Sprague-Dawley rat at 5 mg/kg, iv measured up to 24 hrs by HPLC analysis; assay type: ADME, organism-based; design: time < 24 hrs, dose 5 mg/kg, route iv; conditions: Sprague-Dawley, in vivo
[36] = target: T3, Bile acid receptor (Homo sapiens); assay: Antagonist activity at human FXR expressed in CHO-K1 FXR cells coexpressed with beta-galactosidase at 10 uM preincubated for 60 mins followed by GW4064 addition and measured after 3 to 16 hrs by PathHunter chemiluminescence based assay relative to control; assay type: cell-based; design: scale not given: the % may be the effect or the level left; conditions: time 4-17 hrs

Chain of Progesterone receptor (Homo sapiens) (P06401 whole entry): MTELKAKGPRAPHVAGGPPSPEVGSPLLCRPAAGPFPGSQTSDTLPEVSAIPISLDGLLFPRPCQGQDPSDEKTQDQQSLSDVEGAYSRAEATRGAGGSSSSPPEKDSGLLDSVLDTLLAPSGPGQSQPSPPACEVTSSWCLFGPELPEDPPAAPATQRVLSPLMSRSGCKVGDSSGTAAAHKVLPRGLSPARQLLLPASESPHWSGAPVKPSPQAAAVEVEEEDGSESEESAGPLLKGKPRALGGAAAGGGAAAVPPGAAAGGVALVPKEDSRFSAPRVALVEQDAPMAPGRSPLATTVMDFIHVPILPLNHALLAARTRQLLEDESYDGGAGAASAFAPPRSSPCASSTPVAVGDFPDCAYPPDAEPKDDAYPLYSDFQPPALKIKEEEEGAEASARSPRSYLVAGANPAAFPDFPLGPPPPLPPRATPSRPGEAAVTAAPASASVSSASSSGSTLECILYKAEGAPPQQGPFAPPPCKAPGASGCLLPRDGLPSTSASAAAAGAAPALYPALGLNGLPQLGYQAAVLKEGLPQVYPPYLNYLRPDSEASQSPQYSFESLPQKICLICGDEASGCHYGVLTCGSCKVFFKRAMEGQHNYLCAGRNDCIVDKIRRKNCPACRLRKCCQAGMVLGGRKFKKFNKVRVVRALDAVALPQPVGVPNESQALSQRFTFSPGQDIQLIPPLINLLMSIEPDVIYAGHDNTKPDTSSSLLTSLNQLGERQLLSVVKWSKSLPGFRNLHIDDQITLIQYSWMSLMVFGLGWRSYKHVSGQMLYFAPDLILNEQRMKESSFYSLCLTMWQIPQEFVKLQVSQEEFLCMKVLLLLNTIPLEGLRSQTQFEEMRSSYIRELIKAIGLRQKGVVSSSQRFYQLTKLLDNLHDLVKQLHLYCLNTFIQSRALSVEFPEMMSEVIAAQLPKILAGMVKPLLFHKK
Chain of Thyroid hormone receptor alpha (Homo sapiens) (P10827 whole entry): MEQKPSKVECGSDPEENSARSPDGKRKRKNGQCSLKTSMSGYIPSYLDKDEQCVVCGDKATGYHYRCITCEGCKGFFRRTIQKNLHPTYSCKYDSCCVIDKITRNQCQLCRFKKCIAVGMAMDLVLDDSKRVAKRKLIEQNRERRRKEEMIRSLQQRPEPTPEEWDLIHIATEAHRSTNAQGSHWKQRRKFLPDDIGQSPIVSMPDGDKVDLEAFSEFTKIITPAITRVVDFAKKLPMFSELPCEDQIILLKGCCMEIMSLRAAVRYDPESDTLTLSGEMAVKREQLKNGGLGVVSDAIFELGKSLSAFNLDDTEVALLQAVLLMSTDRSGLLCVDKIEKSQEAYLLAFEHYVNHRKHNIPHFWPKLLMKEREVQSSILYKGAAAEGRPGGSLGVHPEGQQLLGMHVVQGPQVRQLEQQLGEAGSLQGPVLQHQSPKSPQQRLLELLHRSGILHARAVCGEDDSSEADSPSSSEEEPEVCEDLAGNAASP
Chain of Estrogen receptor (Homo sapiens) (P03372 whole entry): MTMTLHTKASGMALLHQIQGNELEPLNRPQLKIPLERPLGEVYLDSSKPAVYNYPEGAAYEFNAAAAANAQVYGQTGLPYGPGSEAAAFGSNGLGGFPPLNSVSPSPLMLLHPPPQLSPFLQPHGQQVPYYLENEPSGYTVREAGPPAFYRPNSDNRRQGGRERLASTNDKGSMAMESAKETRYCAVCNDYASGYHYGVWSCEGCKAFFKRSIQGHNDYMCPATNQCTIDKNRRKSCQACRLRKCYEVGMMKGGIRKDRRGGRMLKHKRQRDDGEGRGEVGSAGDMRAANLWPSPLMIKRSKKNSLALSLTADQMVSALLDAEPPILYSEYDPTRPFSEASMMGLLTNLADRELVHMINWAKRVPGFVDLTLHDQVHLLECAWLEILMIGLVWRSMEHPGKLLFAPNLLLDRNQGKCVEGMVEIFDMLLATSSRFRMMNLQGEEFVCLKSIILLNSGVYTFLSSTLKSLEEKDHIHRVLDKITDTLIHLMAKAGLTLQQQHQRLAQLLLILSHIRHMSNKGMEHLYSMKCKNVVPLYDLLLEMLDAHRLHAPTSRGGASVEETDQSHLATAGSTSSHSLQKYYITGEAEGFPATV
Chain of Retinoic acid receptor RXR-beta (Homo sapiens) (P28702 whole entry): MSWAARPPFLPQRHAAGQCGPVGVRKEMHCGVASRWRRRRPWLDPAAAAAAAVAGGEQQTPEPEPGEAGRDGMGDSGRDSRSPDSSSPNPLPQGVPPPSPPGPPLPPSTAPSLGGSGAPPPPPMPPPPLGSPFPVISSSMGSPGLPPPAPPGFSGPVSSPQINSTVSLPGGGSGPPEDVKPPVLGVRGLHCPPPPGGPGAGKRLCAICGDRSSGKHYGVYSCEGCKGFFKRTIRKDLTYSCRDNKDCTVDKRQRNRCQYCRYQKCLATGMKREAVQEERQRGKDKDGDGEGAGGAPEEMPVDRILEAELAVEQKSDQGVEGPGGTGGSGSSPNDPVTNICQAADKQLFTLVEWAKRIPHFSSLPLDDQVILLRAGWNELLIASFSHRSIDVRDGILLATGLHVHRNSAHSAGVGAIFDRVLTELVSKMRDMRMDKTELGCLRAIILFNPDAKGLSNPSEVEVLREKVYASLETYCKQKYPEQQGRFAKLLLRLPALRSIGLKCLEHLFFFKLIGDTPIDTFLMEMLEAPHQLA
Chain of Retinoic acid receptor beta (Homo sapiens) (P10826 whole entry): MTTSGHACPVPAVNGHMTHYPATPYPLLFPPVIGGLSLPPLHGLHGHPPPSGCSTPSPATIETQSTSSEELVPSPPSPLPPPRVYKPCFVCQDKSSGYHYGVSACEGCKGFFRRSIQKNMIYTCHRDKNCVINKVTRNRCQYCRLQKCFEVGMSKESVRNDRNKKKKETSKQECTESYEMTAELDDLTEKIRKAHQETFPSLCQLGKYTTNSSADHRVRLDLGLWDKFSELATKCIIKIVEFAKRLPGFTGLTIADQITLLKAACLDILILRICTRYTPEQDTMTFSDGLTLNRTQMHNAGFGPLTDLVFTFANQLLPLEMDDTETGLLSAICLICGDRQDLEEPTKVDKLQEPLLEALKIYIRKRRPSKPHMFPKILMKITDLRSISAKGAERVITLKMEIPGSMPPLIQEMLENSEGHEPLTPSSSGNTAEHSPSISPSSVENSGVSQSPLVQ
Chain of Peroxisome proliferator-activated receptor gamma (Homo sapiens) (P37231 whole entry): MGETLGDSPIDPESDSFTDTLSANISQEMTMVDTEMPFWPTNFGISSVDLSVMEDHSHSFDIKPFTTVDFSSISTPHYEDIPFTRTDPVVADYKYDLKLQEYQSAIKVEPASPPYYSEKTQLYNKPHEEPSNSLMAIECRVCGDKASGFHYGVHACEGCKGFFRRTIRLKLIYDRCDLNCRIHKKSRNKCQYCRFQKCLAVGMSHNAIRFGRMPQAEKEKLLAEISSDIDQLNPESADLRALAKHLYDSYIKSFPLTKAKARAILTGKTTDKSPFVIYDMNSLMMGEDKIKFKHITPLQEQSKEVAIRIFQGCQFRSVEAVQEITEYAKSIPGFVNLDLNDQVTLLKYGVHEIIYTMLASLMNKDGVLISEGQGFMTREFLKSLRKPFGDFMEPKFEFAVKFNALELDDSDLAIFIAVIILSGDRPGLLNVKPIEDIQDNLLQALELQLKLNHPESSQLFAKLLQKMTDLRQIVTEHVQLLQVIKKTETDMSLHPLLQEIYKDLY
Chain of Retinoic acid receptor RXR-alpha (Homo sapiens) (P19793 whole entry): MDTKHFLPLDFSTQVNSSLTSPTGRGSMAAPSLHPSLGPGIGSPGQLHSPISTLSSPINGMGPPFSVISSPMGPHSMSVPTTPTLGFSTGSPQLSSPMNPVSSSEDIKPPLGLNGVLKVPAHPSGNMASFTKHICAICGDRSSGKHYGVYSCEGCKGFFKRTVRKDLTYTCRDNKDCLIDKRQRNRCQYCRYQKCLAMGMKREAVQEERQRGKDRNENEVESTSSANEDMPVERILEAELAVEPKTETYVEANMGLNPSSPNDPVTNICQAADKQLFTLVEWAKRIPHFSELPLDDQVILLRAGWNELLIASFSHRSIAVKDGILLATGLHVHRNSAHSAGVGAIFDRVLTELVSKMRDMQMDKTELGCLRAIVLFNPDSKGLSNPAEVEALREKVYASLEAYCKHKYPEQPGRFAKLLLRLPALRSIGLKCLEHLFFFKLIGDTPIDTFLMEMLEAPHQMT
Chain of Mineralocorticoid receptor (Homo sapiens) (P08235 whole entry): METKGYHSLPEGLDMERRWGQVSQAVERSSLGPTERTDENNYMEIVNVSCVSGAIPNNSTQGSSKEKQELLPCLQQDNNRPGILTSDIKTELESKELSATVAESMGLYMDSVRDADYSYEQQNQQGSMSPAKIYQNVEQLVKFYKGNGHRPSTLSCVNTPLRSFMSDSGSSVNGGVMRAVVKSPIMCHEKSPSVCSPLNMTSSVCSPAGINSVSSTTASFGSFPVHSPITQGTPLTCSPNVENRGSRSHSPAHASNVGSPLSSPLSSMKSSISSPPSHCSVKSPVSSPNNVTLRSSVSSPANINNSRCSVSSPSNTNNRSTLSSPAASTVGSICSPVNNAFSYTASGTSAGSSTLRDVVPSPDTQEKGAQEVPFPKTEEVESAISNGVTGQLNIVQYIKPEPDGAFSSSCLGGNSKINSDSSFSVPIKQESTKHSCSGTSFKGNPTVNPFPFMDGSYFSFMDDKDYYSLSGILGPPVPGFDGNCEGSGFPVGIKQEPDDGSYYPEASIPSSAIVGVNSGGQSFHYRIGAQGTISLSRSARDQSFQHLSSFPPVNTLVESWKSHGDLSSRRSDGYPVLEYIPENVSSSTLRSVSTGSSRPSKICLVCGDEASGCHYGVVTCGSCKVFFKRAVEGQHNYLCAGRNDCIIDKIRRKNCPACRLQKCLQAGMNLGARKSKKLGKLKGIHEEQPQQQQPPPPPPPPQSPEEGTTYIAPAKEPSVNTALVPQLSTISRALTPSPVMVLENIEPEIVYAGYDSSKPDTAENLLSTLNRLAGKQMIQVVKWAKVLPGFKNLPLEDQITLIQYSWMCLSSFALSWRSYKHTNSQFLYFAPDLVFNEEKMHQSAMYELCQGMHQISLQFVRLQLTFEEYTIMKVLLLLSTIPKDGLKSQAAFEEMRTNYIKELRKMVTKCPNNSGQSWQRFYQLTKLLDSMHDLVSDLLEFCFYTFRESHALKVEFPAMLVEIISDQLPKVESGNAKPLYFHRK

COC(=O)/C=C/c1cccc(N(Cc2ccc(-c3ccc(N(C)C)cc3)cc2)C(=O)C2CCCCC2)c1 [FEXARAMINE]
Activity [1]: Active | Activity [2]: Active | Activity [3]: Non-Toxic | Activity [4]: Active | Activity [5]: Active | Activity [6]: Non-Toxic | Activity [7]: Active | Activity [8]: Active | Activity [9]: Non-Toxic | Activity [10]: Active

COC(=O)/C=C/c1cccc(N(Cc2ccc3c(c2)CCc2cc(N(C)C)ccc2-3)C(=O)C2CCCCC2)c1
EC50 (Bile acid receptor): > 10 µM

COC(=O)/C=C/c1cccc(N(Cc2ccc(-c3ccc(N(C)C)cc3)c(C#N)c2)C(=O)C2CCCCC2)c1
Emax [11]: 0% | Emax [12]: 0% | Emax [13]: -4% | Emax [14]: -2% | Emax [15]: 0% | Emax [16]: 0% | Emax [17]: 1% | Emax [18]: 3% | Emax [19]: -3% | Emax [20]: -1% | Emax [21]: 2% | Emax [22]: -1% | Emax [23]: -2% | Emax [24]: -11% | Emax [25]: 1% | Emax [26]: 0% | Emax [27]: -3%

COC(=O)/C=C/c1cccc(N(Cc2ccc3c(ccc4cc(N(C)C)ccc43)c2)C(=O)C2CCCCC2)c1
EC50 (Bile acid receptor): > 10 µM

CN(C)c1ccc(-c2ccc(CN(C(=O)C3CCCCC3)c3cc(F)cc(/C=C/C(=O)O)c3)cc2C#N)cc1
Vd [28]: 1.4 L/kg | Stability [29]: Unstable | clearance [30]: 70 mL/min/kg | Activity [31]: 6% | Activity [32]: 0% | Activity [33]: 7% | half-life [34]: 14.4 min | AUC(0-t) at 24 h [35]: 1200 ng·h/mL | Activity [36]: 26%

COc1cccc(Cn2cc(C(=O)Nc3ccc(C)c(S(=O)(=O)N4CCOCC4)c3)c(-c3ccc(C)cc3)n2)c1
Activity ([36]; filed as antagonist): 96%

CN(C)c1ccc(-c2ccc(CN(C(=O)C3CCCCC3)c3cccc(/C=C/C(=O)OCF)c3)cc2C#N)cc1
EC50 (Bile acid receptor): 2.6 µM

CC(C)OC(=O)/C=C/c1cccc(N(Cc2ccc(-c3ccc(N(C)C)cc3)c(C#N)c2)C(=O)C2CCCCC2)c1F
EC50 (Bile acid receptor): 0.9 µM

From ChEMBL document CHEMBL5143733, “Discovery of (E)-3-(3-((2-Cyano-4'-dimethylaminobiphenyl-4-ylmethyl)cyclohexanecarbonylamino)-5-fluorophenyl)acrylic Acid Methyl Ester, an Intestine-Specific, FXR Partial Agonist for the Treatment of Nonalcoholic Steatohepatitis” (J Med Chem, 2022)
